Assay results from PubChem BioAssay (NCI).
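The concentration for 50% growth inhibition is given as GI50. At the TGI there is no net growth.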

Tests used:
Experiment in all cases: inhibition of tumour cell growth, NCI panel, 384-well format
NCI/ADR-RES ovarian = system: NCI/ADR-RES ovarian
MDA-MB-231 breast = system: MDA-MB-231 breast
IGROV1 ovarian = system: IGROV1 ovarian
OVCAR-4 ovarian = system: OVCAR-4 ovarian
SNB-75 CNS = system: SNB-75 CNS
MALME-3M melanoma = system: MALME-3M melanoma
NCI-H23 lung = system: NCI-H23 lung
SK-MEL-2 melanoma = system: SK-MEL-2 melanoma
SK-MEL-28 melanoma = system: SK-MEL-28 melanoma
PC-3 prostate = system: PC-3 prostate
RXF 393 renal = system: RXF 393 renal
SF-295 CNS = system: SF-295 CNS
MOLT-4 leukemia = system: MOLT-4 leukemia
TK-10 renal = system: TK-10 renal
UACC-257 melanoma = system: UACC-257 melanoma
OVCAR-5 ovarian = system: OVCAR-5 ovarian
SW-620 colon = system: SW-620 colon
MDA-MB-468 breast = system: MDA-MB-468 breast
HCT-116 colon = system: HCT-116 colon
SF-539 CNS = system: SF-539 CNS
HOP-62 NSCLC = system: HOP-62 NSCLC
HS 578T breast = system: HS 578T breast
ACHN renal = system: ACHN renal
BT-549 breast = system: BT-549 breast
HT29 colon = system: HT29 colon
K-562 leukemia = system: K-562 leukemia
A549 NSCLC = system: A549 NSCLC
NCI-H226 lung = system: NCI-H226 lung
A498 renal = system: A498 renal
RPMI-8226 leukemia = system: RPMI-8226 leukemia
SF-268 CNS = system: SF-268 CNS
DU-145 prostate = system: DU-145 prostate
HL-60(TB) leukemia = system: HL-60(TB) leukemia
T-47D breast = system: T-47D breast
HCT-15 colon = system: HCT-15 colon
M14 melanoma = system: M14 melanoma
MDA-MB-435 melanoma = system: MDA-MB-435 melanoma
SN12C renal = system: SN12C renal
OVCAR-8 ovarian = system: OVCAR-8 ovarian
CAKI-1 renal = system: CAKI-1 renal
NCI-H522 lung = system: NCI-H522 lung
CCRF-CEM leukemia = system: CCRF-CEM leukemia
U251 glioblastoma = system: U251 glioblastoma
MCF7 breast = system: MCF7 breast
UO-31 renal = system: UO-31 renal
OVCAR-3 ovarian = system: OVCAR-3 ovarian
HOP-92 NSCLC = system: HOP-92 NSCLC
SNB-19 CNS = system: SNB-19 CNS
NCI-H322M lung = system: NCI-H322M lung
EKVX NSCLC = system: EKVX NSCLC
SK-OV-3 ovarian = system: SK-OV-3 ovarian
786-0 renal = system: 786-0 renal
LOX IMVI melanoma = system: LOX IMVI melanoma
UACC-62 melanoma = system: UACC-62 melanoma
KM12 colon = system: KM12 colon

OCC1OC(n2cnc3c2NC=NC[C@H]3O)CC1O (stereo not given in full)
GI50 (NCI/ADR-RES ovarian): > 100 µM | TGI (NCI/ADR-RES ovarian): > 100 µM | GI50 (MDA-MB-231 breast): > 100 µM | TGI (MDA-MB-231 breast): > 100 µM | GI50 (IGROV1 ovarian): > 100 µM | TGI (IGROV1 ovarian): > 100 µM | GI50 (OVCAR-4 ovarian): > 100 µM | TGI (OVCAR-4 ovarian): > 100 µM | GI50 (SNB-75 CNS): > 100 µM | TGI (SNB-75 CNS): > 100 µM | GI50 (MALME-3M melanoma): > 100 µM | TGI (MALME-3M melanoma): > 100 µM | GI50 (NCI-H23 lung): > 100 µM | TGI (NCI-H23 lung): > 100 µM | GI50 (SK-MEL-2 melanoma): > 100 µM | TGI (SK-MEL-2 melanoma): > 100 µM | GI50 (SK-MEL-28 melanoma): > 100 µM | TGI (SK-MEL-28 melanoma): > 100 µM | GI50 (PC-3 prostate): > 100 µM | TGI (PC-3 prostate): > 100 µM | GI50 (RXF 393 renal): > 100 µM | TGI (RXF 393 renal): > 100 µM | GI50 (SF-295 CNS): > 100 µM | TGI (SF-295 CNS): > 100 µM | GI50 (MOLT-4 leukemia): > 100 µM | TGI (MOLT-4 leukemia): > 100 µM | GI50 (TK-10 renal): > 100 µM | TGI (TK-10 renal): > 100 µM | GI50 (UACC-257 melanoma): > 100 µM | TGI (UACC-257 melanoma): > 100 µM | GI50 (OVCAR-5 ovarian): > 100 µM | TGI (OVCAR-5 ovarian): > 100 µM | GI50 (SW-620 colon): > 100 µM | TGI (SW-620 colon): > 100 µM | GI50 (MDA-MB-468 breast): > 100 µM | TGI (MDA-MB-468 breast): > 100 µM | GI50 (HCT-116 colon): > 100 µM | TGI (HCT-116 colon): > 100 µM | GI50 (SF-539 CNS): > 100 µM | TGI (SF-539 CNS): > 100 µM | GI50 (HOP-62 NSCLC): > 100 µM | TGI (HOP-62 NSCLC): > 100 µM | GI50 (HS 578T breast): > 100 µM | TGI (HS 578T breast): > 100 µM | GI50 (ACHN renal): > 100 µM | TGI (ACHN renal): > 100 µM | GI50 (BT-549 breast): > 100 µM | TGI (BT-549 breast): > 100 µM | GI50 (HT29 colon): > 100 µM | TGI (HT29 colon): > 100 µM | GI50 (K-562 leukemia): > 100 µM | TGI (K-562 leukemia): > 100 µM | GI50 (A549 NSCLC): > 100 µM | TGI (A549 NSCLC): > 100 µM | GI50 (NCI-H226 lung): > 100 µM | TGI (NCI-H226 lung): > 100 µM | GI50 (A498 renal): > 100 µM | TGI (A498 renal): > 100 µM | GI50 (RPMI-8226 leukemia): > 100 µM | TGI (RPMI-8226 leukemia): > 100 µM | GI50 (SF-268 CNS): > 100 µM | TGI (SF-268 CNS): > 100 µM | GI50 (DU-145 prostate): > 100 µM | TGI (DU-145 prostate): > 100 µM | GI50 (HL-60(TB) leukemia): > 100 µM | TGI (HL-60(TB) leukemia): > 100 µM | GI50 (T-47D breast): > 100 µM | TGI (T-47D breast): > 100 µM | GI50 (HCT-15 colon): > 100 µM | TGI (HCT-15 colon): > 100 µM | GI50 (M14 melanoma): > 100 µM | TGI (M14 melanoma): > 100 µM | GI50 (MDA-MB-435 melanoma): > 100 µM | TGI (MDA-MB-435 melanoma): > 100 µM | GI50 (SN12C renal): > 100 µM | TGI (SN12C renal): > 100 µM | GI50 (OVCAR-8 ovarian): > 100 µM | TGI (OVCAR-8 ovarian): > 100 µM | GI50 (CAKI-1 renal): > 100 µM | TGI (CAKI-1 renal): > 100 µM | GI50 (NCI-H522 lung): > 100 µM | TGI (NCI-H522 lung): > 100 µM | GI50 (CCRF-CEM leukemia): > 100 µM | TGI (CCRF-CEM leukemia): > 100 µM | GI50 (U251 glioblastoma): > 100 µM | TGI (U251 glioblastoma): > 100 µM | GI50 (MCF7 breast): > 100 µM | TGI (MCF7 breast): > 100 µM | GI50 (UO-31 renal): > 100 µM | TGI (UO-31 renal): > 100 µM | GI50 (OVCAR-3 ovarian): > 100 µM | TGI (OVCAR-3 ovarian): > 100 µM | GI50 (HOP-92 NSCLC): > 100 µM | TGI (HOP-92 NSCLC): > 100 µM | GI50 (SNB-19 CNS): > 100 µM | TGI (SNB-19 CNS): > 100 µM | GI50 (NCI-H322M lung): > 100 µM | TGI (NCI-H322M lung): > 100 µM | GI50 (EKVX NSCLC): > 100 µM | TGI (EKVX NSCLC): > 100 µM | GI50 (SK-OV-3 ovarian): > 100 µM | TGI (SK-OV-3 ovarian): > 100 µM | GI50 ([…]-0 renal): > 100 µM | TGI (786-0 renal): > 100 µM | GI50 (LOX IMVI melanoma): > 100 µM | TGI (LOX IMVI melanoma): > 100 µM | GI50 (UACC-62 melanoma): > 100 µM | TGI (UACC-62 melanoma): > 100 µM | GI50 (KM12 colon): > 100 µM | TGI (KM12 colon): > 100 µM
